According to patent publication US20230407365A1, “DIAGNOSTIC TOOL FOR SCREENING THE IMPACT OF PRODUCT INGREDIENTS FOR UROGENITAL MICROBIOMES THERAPIES” (priority 2022, published 2023):

Assays:
L. gasseri [1] = test: L. gasseri in anaerobic conditions at 37° C., OD 600 nm (FIG. 20); type: cell-based
Description: 2010. […] Confirmation as lactobacilli was confirmed by qPCR. The treatment results are measured by OD 600 nm 1715 of one embodiment.

E. coli = test: Quantitative analysis of actives for cannabinoids, culture growth by OD 600 nm (FIG. 18); type: cell-based; details: aerobic conditions; compared with No treatment Ctrl
Description: FIGS. 17A, 17B and 18 show the results of quantitative analysis of actives for cannabinoids for Lactobacillus crispatus, Lactobacillus gasseri and E. coli. Each sample is treated with a CBD distillate, THC distillate, and De Man, Rogosa and Sharpe (MRS) agar plates as indicated on chart. Additionally, a CBD isolate of the samples is also treated.
The treatment results are measured by OD 600 nm 1715 of one embodiment.

L. crispatus [2] = test: L. crispatus in anaerobic conditions at 37° C., OD 600 nm (FIG. 19); type: cell-based
Description: 1910. […] Confirmation as lactobacilli was confirmed by qPCR. The treatment results are measured by OD 600 nm 1715 of one embodiment.

Candida albicans = test: CBD effects on C. albicans, normalized optical density (FIG. 16A); type: cell-based; details: anaerobically cultured Candida albicans
Streptococcus pneumoniae = details: reported; cited from earlier work
Staphylococcus aureus = details: reported; cited from earlier work
L. crispatus [3] = test: Inhibition results, OD 600 nm (FIG. 21); type: cell-based; details: MRS broth
Description: (§1) Treatments included Product R 2150, Erythromycin 2152, No trt 2154, and Ctrl 2156. […] A drop in pH was expected and observed. Follow up treatments should include a positive control using a gram-positive antibiotic, e.g erythromycin, vancomycin or tetracycline, to show inhibition of the lactobacilli strains L. gasseri 2130 and L. crispatus 2140. The treatment results are measured by OD 600 nm 1715 of one embodiment.

L. gasseri [4] = test: Inhibition results, OD 600 nm (FIG. 21); type: cell-based; details: MRS broth
Description: as §1

C=C(C)[C@@H]1CCC(C)=C[C@H]1c1c(O)cc(CCCCC)cc1O [CBD isolate, cannabidiol]
inhibition of growth (OD 600 nm) (L. gasseri [1]): lack of inhibition
treatment results measured by OD 600 nm over treatment exposure times (growth inhibition) (E. coli): relatively similar results
inhibition of growth (OD 600 nm) (L. crispatus [2]): lack of inhibition

C=C(C)[C@@H]1CCC(C)=C[C@H]1c1c(O)cc(CCCCC)cc1O [CBD, cannabidiol]
CBD effects on C. albicans (Normalized Optical Density over time) (Candida albicans): positive result
inhibitory levels (Streptococcus pneumoniae): low micromolar range
inhibitory levels (Staphylococcus aureus): low micromolar range

CC[C@H]1OC(=O)[C@H](C)[C@@H](O[C@H]2C[C@@](C)(OC)[C@@H](O)[C@H](C)O2)[C@H](C)[C@@H](O[C@@H]2O[C@H](C)C[C@H](N(C)C)[C@H]2O)[C@](C)(O)C[C@@H](C)C(=O)[C@H](C)[C@@H](O)[C@]1(C)O [Erythromycin]
inhibition of growth (OD 600 nm) (L. crispatus [3]): no observed inhibition of growth
inhibition of growth (OD 600 nm) (L. gasseri [4]): no observed inhibition of growth
